Test results published in patent US11339124B2, “3-(benzylamino)-4-(cyclohexylamino)-n-(2-(piperazin-1-yl)ethyl)benzenesulfonamide derivatives and related ferrostatin-1 analogues as cell death inhibitors for treating e.g. stroke” (VIB VZW, priority 2018, dated 2022).
Read-outs that look alike come from different tables or passages of the source.

Columns and labels:
[1] = tested on: IMR-32 Neuroblastoma cells; test: Erastin-induced ferroptosis in IMR-32 neuroblastoma cells (Sytox Green cell death readout); format: cell-based; settings: IMR-32 cells, 10 μM erastin, compounds 1 nM to 1 μM, triplicate, read-out: IC50, antiferroptotic activity in response to erastin-induced ferroptosis
Method: In the present invention the potency of a compound inhibiting (or reducing) ferroptosis and/or oxytosis are determined in in vitro or in vivo assays. Typically in vitro assays are used to measure the potency of a candidate compound. Examples of suitable in vitro assays are cellular assays. One non-limiting example of an assay involves the use of the IMR-32 neuroblastoma cell line. The latter is stimulated to enter into ferroptosis upon stimulation with 10 μM erastin, a documented ferroptosis inducer (see for example Dixon et al (2012) Cell 149, 1060-1072 and ferroptosis inhibitors are evaluated for the prevention of erastin induced ferroptosis. Yet another assay is based the glutamate-induced cell death in the hippocampal cell line HT22 and ferroptosis/oxytosis inhibitors are evaluated for the prevention of cell death (see Henke N. et al (2013) Cell Death and Disease 4, e470). Still another assay is based on the sorafinib induced cell death (described to be iron dependent cell death) in hepatocellular carcinoma cells and ferroptosis inhibitors are evaluated for the prevention of cell death (see Louandre C. et al (2013) Int. J. Cancer 133, 1732). The calculated potency of a compound inhibiting ferroptosis and/or oxytosis is typically depicted as an IC50 value. Examples of suitable in vivo assays are typically pre-clinical disease models of for example mice for the diseases benefiting the application of ferroptosis and/or oxytosis inhibitors, as described herein. One non-limiting example of an in vivo assay is based on inducing liver damage in mice by administering the herbicide diquat dibromide monohydrate and ferroptosis inhibitors are evaluated based on reduced levels of liver transaminases in serum (see Ran Q et al (2004) J. Biol. Chem. 279, 53, 55137).
The IC50 values for the individual compounds of the invention were determined in the neuroblastoma, IMR-32 cell line. In brief, IMR-32 cells were subjected to 10 μM erastin, the latter compound is known to induce ferroptosis. A concentration gradient (ranging from 1 nM to 1 μM) of the compounds was applied to the cells. These experiments were performed in a 96-well format (in triplicate), and cell death was analyzed in a fluorescent plate reader by use of a fluorescent cell death dye (1.5 μM Sytox Green). The IC50 values depicted in Table 1 are the concentration values for the individual compounds which are able to overcome ferroptosis.

[2] = Kinetic solubility (turbidimetric method); format: physicochemical; settings: 10 mM PBS pH 7.4, 2% DMSO, test range 3.125-200 μM, 2 h at 37° C.
Method: A turbidimetric method was used. First a series of DMSO compound stock solutions was prepared ([…]). An aliquot of 4 μL stock solution was added to 196 μL PBS buffer (pH 7.4). A series of concentrations were prepared (3.13-200 μM), including a blank on a microtiter plate. (2% DMSO-D6) The microtiter plate was shaken for 10 seconds and incubated for 2 hours at 37° C. When there was no turbidity measured at a given concentration the sample was assumed to be dissolved.

[3] = tested on: acute iron poisoning induced organ damage; test: Acute iron poisoning (FeSO4) induced organ damage, plasma LDH and creatine kinase; format: in vivo
Method: Equimolar amounts of ferroptosis inhibitors (˜10 mg/kg) were injected iv 15 min before ip injection of FeSO4 (300 mg/kg). Plasma was collected 2 h after FeSO4-challenge and analyzed for the presence of lactate dehydrogenase (LDH) and creatine kinase. Fer-1 is ferrostatin, 3234 is compound 37,3206 is compound 38 and 3203 is compound 39 (see Table 1 for numbering and structure). […] Equimolar amounts of ferroptosis inhibitors (˜10 mg/kg) were injected iv 30 min after ip injection of FeSO4 (300 mg/kg). Plasma was collected 8 h after FeSO4-challenge and analyzed for the presence of lactate dehydrogenase (LDH) and creatine kinase.
We identified acute iron poisoning as a novel experimental model for in rhabdomyolysis-induced kidney failure.

[4] = Microsomal (metabolic) stability, human liver microsomes; settings: human liver microsomes, 0.5 mg protein/ml, 10 μM compound, 37° C.
Text: By using the measured microsomal in vitro t1/2, a calculated value for the intrinsic clearance Clint can be determined. This value states the measure in which a drug that is not bound to plasma proteins is irreversibly removed from the body by the liver. This value is expressed in mL/min/kg which can be interpreted as the volume of blood in mL that is cleared of a drug per minute per kilogram of body weight. The CLint is less sensitive to used variables in ADME assays since the amount of microsomal protein and the volume of the incubation are all taken into account. (Sohlenius-Sternbeck et al., Xenobiotica, 2012, 42, 841-853)
Liver microsomes (20 mg protein/ml), NADPH regenerating system solutions A & B and 5 mM stock compound solution (100% DMSO) are prepared. The reaction mixture finally contains 713 μL purified water, 200 μL 0.5 M potassium phosphate pH 7.4, 50 μL NADPH regenerating system solution A (BD Biosciences Cat. No. 451220), 10 μL NADPH regenerating system solution B (BD Biosciences Cat. No. 451200) and 2 μL of the compound stock solution (10 μM final concentration). The reaction mixture is warmed to 37° C. for 5 minutes in a water bath and the reaction is initiated by addition of 25 μL of liver microsomes (0.5 mg protein/ml final concentration). At different time points (0 min-15 min-30 min-60 min-120 min-240 min-360 min-24 h), 20 μL is withdrawn and 80 μL cold acetonitrile is added on ice for 10 minutes. Then the mixtures are centrifuged at 13 000 rpm for 5 min at 4° C. The supernatant is further diluted in 90% water/MeCN (1/25) to fall within the range of the LC/MS/MS analysis. At each time point, the compound is analysed using LC/MS/MS with the same UPLC system as described above. A standard curve of six points was made to fit the measured concentrations. Verapamil was used as a positive control.
All obtained readouts were processed using Microsoft Excel. In order to determine the microsomal half-life t1/2 of the compounds, the rate constant k was determined by plotting the exponential decay graphs using GraFit. Microsomal t1/2 was determined using the following formula: […]

| Structure (SMILES) | IC50 ([1]; Homo sapiens) | Solubility (kinetic) [2] | Protection against organ damage: plasma lactate dehydrogenase (LDH) and creatine kinase levels, prophylactic setting ([3]; ~10 mg/kg iv 15 min before FeSO4 300 mg/kg ip, plasma 2 h after challenge (FIG. 5A)) | Protection against organ damage: plasma lactate dehydrogenase (LDH) and creatine kinase levels, therapeutic setting ([3]; ~10 mg/kg iv 30 min after FeSO4 300 mg/kg ip, plasma 8 h after challenge (FIG. 5B)) | IC50 [1] | Microsomal stability (t1/2), Human [4] |
| --- | --- | --- | --- | --- | --- | --- |
| Nc1cc(S(=O)(=O)NCCN2CCNCC2)ccc1NC1CCCCC1 [Compound 29, 3-amino-4-(cyclohexylamino)-N-(2-(piperazin-1-yl)ethyl)benzenesulfonamide] | 0.296 µM | >200 µM |  |  |  |  |
| CN(C)CCNS(=O)(=O)c1ccc(NC2CCCCC2)c(NCc2ccccc2)c1 [Compound 30, 3-(benzylamino)-4-(cyclohexylamino)-N-(2-(dimethylamino)ethyl)benzenesulfonamide] | 0.554 µM | >200 µM |  |  |  |  |
| O=S(=O)(NCCN1CCOCC1)c1ccc(NC2CCCCC2)c(NCc2ccncc2)c1 [Compound 45, 4-(cyclohexylamino)-N-(2-morpholinoethyl)-3-((pyridin-4-ylmethyl)amino)benzenesulfonamide] | 0.191 µM | >200 µM |  |  |  |  |
| Nc1cc(S(=O)(=O)NCCN2CCOCC2)ccc1NC1CCCCC1 [Compound 25, 3-amino-4-(cyclohexylamino)-N-(2-morpholinoethyl)benzenesulfonamide] | 0.448 µM | >200 µM |  |  |  |  |
| CNCCNS(=O)(=O)c1ccc(NC2CCCCC2)c(NCc2ccncc2)c1.Cl [Compound 47, 4-(cyclohexylamino)-N-(2-(methylamino)ethyl)-3-((pyridin-4-ylmethyl)amino)benzenesulfonamide Hydrochloride] | 0.157 µM | >200 µM |  |  |  |  |
| Cl.O=S(=O)(NCCN1CCNCC1)c1ccc(NC2CCCCC2)c(NCc2ccncc2)c1 [Compound 49, 4-(cyclohexylamino)-N-(2-(piperazin-1-yl)ethyl)-3-((pyridin-4-ylmethyl)amino)benzenesulfonamide Hydrochloride] | 0.442 µM | >200 µM |  |  |  |  |
| CN1CCN(CCNS(=O)(=O)c2ccc(NC3CCCCC3)c(N)c2)CC1 [Compound 24, 3-amino-4-(cyclohexylamino)-N-(2-(4-methylpiperazin-1-yl)ethyl)benzenesulfonamide] | 0.236 µM | >200 µM |  |  |  |  |
| CN(C)CCNS(=O)(=O)c1ccc(NC2CCCCC2)c(N)c1 [Compound 20, 3-amino-4-(cyclohexylamino)-N-(2-(dimethylamino)ethyl)benzenesulfonamide] | 0.16 µM | >200 µM |  |  |  |  |
| CN(C)CCNS(=O)(=O)c1ccc(NC2CCCCC2)c(NCc2ccncc2)c1 [Compound 40, 4-(cyclohexylamino)-N-(2-(dimethylamino)ethyl)-3-((pyridin-4-ylmethyl)amino)benzenesulfonamide] | 1.56 µM | >200 µM |  |  |  |  |
| Cl.NCCNS(=O)(=O)c1ccc(NC2CCCCC2)c(N)c1 [Compound 28, 3-amino-N-(2-aminoethyl)-4-(cyclohexylamino)benzenesulfonamide Hydrochloride] | 0.306 µM | >200 µM |  |  |  |  |
| Cl.NCCNS(=O)(=O)c1ccc(NC2CCCCC2)c(NCc2ccncc2)c1 [Compound 48, N-(2-aminoethyl)-4-(cyclohexylamino)-3-((pyridin-4-ylmethyl)amino)benzenesulfonamide Hydrochloride] | 0.112 µM | 100 to 200 µM |  |  |  |  |
| CN1CCN(CCNS(=O)(=O)c2ccc(NC3CCCCC3)c(NCc3ccncc3)c2)CC1 [Compound 44, 4-(cyclohexylamino)-N-(2-(4-methylpiperazin-1-yl)ethyl)-3-((pyridin-4-ylmethyl)amino)benzenesulfonamide] | 1.52 µM | >200 µM |  |  |  |  |
| CNCCNS(=O)(=O)c1ccc(NC2CCCCC2)c(N)c1.Cl [Compound 27, 3-amino-4-(cyclohexylamino)-N-(2-(methylamino)ethyl)benzenesulfonamide Hydrochloride] | 0.214 µM | >200 µM |  |  |  |  |
| CN1CCN(CCNS(=O)(=O)c2ccc(NC3CCCCC3)c(NCc3ccccc3)c2)CC1 [Compound 34, 3-(benzylamino)-4-(cyclohexylamino)-N-(2-(4-methylpiperazin-1-yl)ethyl)benzenesulfonamide] | 1.07 µM | >200 µM |  |  |  |  |
| COCCNS(=O)(=O)c1ccc(NC2CCCCC2)c(NCc2ccncc2)c1 [Compound 46, 4-(cyclohexylamino)-N-(2-methoxyethyl)-3-((pyridin-4-ylmethyl)amino)benzenesulfonamide] | 0.097 µM | >200 µM |  |  |  |  |
| COCCNS(=O)(=O)c1ccc(NC2CCCCC2)c(N)c1 [Compound 26, 3-amino-4-(cyclohexylamino)-N-(2-methoxyethyl)benzenesulfonamide] | 0.492 µM | >200 µM |  |  |  |  |
| CCOC(=O)c1ccc(NC2CCCCC2)c(N)c1 [Compound 1, ferrostatin-1] |  | >200 µM | does not show any significant protection | only shows minor protection | 0.033 µM | 6.54 ± 0.18 min |
| COCCNS(=O)(=O)c1ccc(NC2CCCCC2)c(NCc2ccccc2)c1 [Compound 36, 3-(benzylamino)-4-(cyclohexylamino)-N-(2-methoxyethyl)benzenesulfonamide] | 0.022 µM | 25 to 50 µM |  |  |  |  |
